In patent publication US20220218664A1, “DRUG AND METHOD FOR TREATING OR PREVENTING COMPLICATIONS FROM DIABETES, USING SAID DRUG” (TMS Co., Ltd., priority 2019, published 2022):

Key:
Type in all cases: in vivo, C57BL/6J male mice
[1] = system: streptozotocin-induced diabetic mice; assay: Von Frey test: evaluating mechanical stimulus; conditions: 10 mg/kg i.p. once a day
Protocol: (§1) 9-week-old C57BL/6J male mice were purchased and familiarized with an animal facility for 1 week. 200 mg/kg of streptozotocin (streptozotocin; STZ) was administered […] into the peritoneal cavity of 10-week-old mice to prepare streptozotocin-induced diabetic mice (hereinafter also referred to as “STZ administration week 0”). One week after the administration of streptozotocin, blood was collected from the tail vein of the mice, and the blood glucose level (BS) was measured using an automatic blood glucose measuring device (product name: Medisafe (trademark) Mini GR-102, made by Terumo (Co)). Mice having a blood glucose level of 400 mg/dL or more were determined to be diabetic mice.
(§2) The SMTP-44D groups, the edaravone group, and the pregabalin group were administered SMTP-44D (0.3 mg/kg, 3 mg/kg, or 30 mg/kg doses, respectively), edaravone (10 mg/kg dose), or pregabalin (10 mg/kg dose) into the peritoneal cavity once a day for 3 consecutive weeks from the day following the first week to the fourth week after STZ administration.
The above-mentioned STZ group, SMTP-44D groups, edaravone group, pregabalin group, and control group mice were put in grid-like boxes, respectively, and were familiarized for one hour. After the familiarization, by using a Dynamic Plantar Aesthesiometer (tactometer) (manufactured by UGO BASILE Inc.), 1 g/s (that, pressurization increased by 1 g per second) of stimulation was imparted to the hind legs of these mice to measure mechanical thresholds (g) from the start of stimulation to the time when the mice withdrew their legs. The measurements were conducted for both hind legs three times at intervals of three minutes or longer, respectively. A mean value of three mechanical thresholds (g) was calculated for 1 mouse, and then a mean value of the 12 mice for the respective groups was found.

[2] = system: streptozotocin-induced diabetic mice; assay: Hind plantar blood flow (laser perfusion imager); conditions: 10 mg/kg i.p. once a day
Protocol: as §1, §2
The hind plantar blood flows (perfusion unit: PU) of the above-mentioned STZ group, SMTP-44D groups, edaravone group, pregabalin group, and control group mice were measured under isoflurane anesthesia using a full-field laser perfusion imager.

[3] = system: streptozotocin-induced diabetic mice; assay: Sciatic nerve blood flow; conditions: 10 mg/kg i.p. once a day, 4th week
Protocol: as §1, §2
(§3) Sciatic nerves of the above-mentioned STZ group, SMTP-44D groups, edaravone group, pregabalin group, and control group mice on the 4th week were exposed under isoflurane anesthesia, and then, using the full-field laser perfusion imager, their sciatic nerve blood flows (perfusion unit: PU) were measured. After the sciatic nerve blood flows were measured, a voltage was output from a PowerLab through the […] to impart an electrical stimulus to the sciatic nerves using needle electrodes. The electrical stimulus went through the Analog Stimulus Isolator via recording electrodes attached to the gastrocnemius and was input into the PowerLab, and thus neuromuscular function response curves were measured. The sciatic nerves were stimulated between two points at 8-mm intervals. The sciatic nerve conduction velocity (m/s) was calculated by dividing the […]. The sciatic nerve blood flow and sciatic nerve conduction velocity were measured using a Hot-1 small-sized heating controller and small-sized body temperature retention device (model number: […]-1), maintaining the rectal temperature at 37° C. The measurement results are described in Table 11.

[4] = system: streptozotocin-induced diabetic mice; assay: Sciatic nerve conduction velocity; conditions: 10 mg/kg i.p. once a day, 4th week
Protocol: as §1, §2, §3

[5] = system: streptozotocin-induced diabetic mice; assay: Thickness and G-ratio of myelin in the sciatic nerve; conditions: 10 mg/kg i.p. once a day, 4th week
Protocol: as §1, §2
The above-mentioned STZ group, SMTP-44D (30 mg/kg) group, edaravone group, pregabalin group, and control group mice in the 4th week were dissected to remove the sciatic nerves. The sciatic nerves were fixed using neutral buffered formalin and embedded using an Epon resin, and then semi-thin segments were formed and dyed using toluidine blue. The cross sections of the sciatic nerves in the respective specimens were examined using a microscope equipped with a digital camera at 400× magnification. The thickness of myelin ((diameter of axon including myelin diameter of axon)/2) and G-ratio (diameter of axon/diameter of axon including myelin) were measured.

malondialdehyde: MDA = assay: Oxidative stress (MDA, TBARS assay) in sciatic nerve; conditions: 10 mg/kg i.p. once a day, 4th week
Protocol: as §1, §2
The sciatic nerves of the above-mentioned STZ group, SMTP-44D group (30 mg/kg), edaravone group, pregabalin group, and control group mice in the 4th week were homogenized using an RIPA buffer containing a protease inhibitor cocktail. Moreover, centrifugation was conducted at 4° C. for 15 minutes at 1600 g, and the supernatant was collected and used for measuring MDA (μM) and total protein concentration (μg/mL), respectively. MDA was measured using a TBARS Assay Kit. The total protein concentration was measured using a Pierce (Trademark) BCA Protein Assay Kit. Oxidative stress levels (nmol/mg protein) were calculated from MDA (μM) and the total protein concentration (μg/mL).

TNF-α = assay: Inflammatory cytokine TNF-α in sciatic nerve (ELISA); conditions: 10 mg/kg i.p. once a day, 4th week
Protocol: as §1, §2
The sciatic nerves of the above-mentioned STZ group, SMTP-44D group (30 mg/kg), edaravone group, pregabalin group, and control group mice on the 4th week were homogenized using the RIPA buffer containing a protease inhibitor cocktail. Moreover, centrifugation was conducted at 4° C. for 15 minutes at 10,000 g, and the supernatant was collected and used for measuring TNF-α concentration (pg/mL), IL-1β concentration (pg/mL), IL-6 concentration (pg/mL), and total protein concentration (μg/mL), respectively. An ELISA assay kit was used for the TNF-α, IL-1β, and IL-6 concentrations. The total protein concentration was measured by using a Pierce (trademark) BCA Protein Assay Kit. The inflammatory cytokine level (pg/mg protein) in the total protein was calculated from the TNF-α concentration (pg/mL), IL-1β concentration (pg/mL), and IL-6 concentration (pg/mL), and total protein concentration (μg/mL).

[6] = 0th week (before dosing), listed as pregabalin
[7] = 1st week (before dosing), listed as pregabalin
[8] = 0th week (before dosing), listed as edaravone
[9] = 1st week (before dosing), listed as edaravone

Q: How did the “von Frey test mechanical threshold” value ([1]; 0th week (before dosing)) turn out when `CC(C)C[C@H](CN)CC(=O)O` [Pregabalin, pregabalin] was run?
A: Its value is 5.0 ± 0.2 g.

Q: What about the “von Frey test mechanical threshold” value [1, 6] of the same compound?
A: Its value is 5.0 ± 0.2 g.

Q: What about the “von Frey test mechanical threshold” value ([1]; 1st week (before dosing)) of the same compound?
A: The value was 4.0 ± 0.1 g.

Q: And the “von Frey test mechanical threshold” value [1, 7]?
A: Its value is 4.0 ± 0.1 g.

Q: What about the “von Frey test mechanical threshold” value ([1]; 2nd week) of the same compound?
A: Its value is 4.6 ± 0.2 g.

Q: And the “von Frey test mechanical threshold” value ([1]; 2nd week, listed as pregabalin)?
A: Its value is 4.6 ± 0.2 g.

Q: What about the “von Frey test mechanical threshold” value ([1]; 3rd week) of the same compound?
A: The value was 4.6 ± 0.2 g.

Q: What about the “von Frey test mechanical threshold” value ([1]; 3rd week, listed as pregabalin) of the same compound?
A: The value was 4.6 ± 0.2 g.

Q: What about the “von Frey test mechanical threshold” value ([1]; 4th week) of the same compound?
A: The value was 4.7 ± 0.2 g.

Q: And the “von Frey test mechanical threshold” value ([1]; 4th week, listed as pregabalin)?
A: Its value is 4.7 ± 0.2 g.

Q: And the “Hind plantar blood flow” value ([2]; 0th week (before dosing))?
A: The value was 214.2 ± 7.6 PU.

Q: What about the “Hind plantar blood flow” value [2, 6] of the same compound?
A: The value was 214.2±7.6 PU.

Q: What about the “Hind plantar blood flow” value ([2]; 1st week (before dosing)) of the same compound?
A: The value was 159.8 ± 6.3 PU.

Q: And the “Hind plantar blood flow” value [2, 7]?
A: Its value is 159.8±6.3 PU.

Q: And the “Hind plantar blood flow” value ([2]; 2nd week)?
A: Its value is 144.7 ± 8.3 PU.

Q: And the “Hind plantar blood flow” value ([2]; 2nd week, listed as pregabalin)?
A: Its value is 144.7±8.3 PU.

Q: What about the “Hind plantar blood flow” value ([2]; 3rd week) of the same compound?
A: Its value is 152.7 ± 9.5 PU.

Q: What about the “Hind plantar blood flow” value ([2]; 3rd week, listed as pregabalin) of the same compound?
A: Its value is 152.7±9.5 PU.

Q: And the “Hind plantar blood flow” value ([2]; 4th week)?
A: Its value is 151.2 ± 8.0 PU.

Q: What about the “Hind plantar blood flow” value ([2]; 4th week, listed as pregabalin) of the same compound?
A: Its value is 151.2±8.0 PU.

Q: What about the “Sciatic nerve blood flow” value [3] of the same compound?
A: The value was 1114.1 ± 27.5 PU.

Q: And the “Sciatic nerve blood flow” value ([3]; listed as pregabalin)?
A: Its value is 1114.1±27.5 PU.

Q: And the “Sciatic nerve conduction velocity” value [4]?
A: The value was 55.9 ± 1.4 m/s.

Q: And the “Sciatic nerve conduction velocity” value ([4]; listed as pregabalin)?
A: Its value is 55.9±1.4 m/s.

Q: And the G-ratio ([5]; listed as Preaabalin)?
A: The G-ratio was 0.665 ± 0.006.

Q: What about the Thickness of myelin ([5]; listed as Preaabalin) of the same compound?
A: Its Thickness of myelin is 1.29 ± 0.03 μm.

Q: And the G-ratio ([5]; listed as pregabalin)?
A: Its G-ratio is 0.665±0.006.

Q: What about the Thickness of myelin ([5]; listed as pregabalin) of the same compound?
A: Its Thickness of myelin is 1.29±0.03 μm.

Q: And the “MDA (oxidative stress)” value (malondialdehyde: MDA)?
A: Its value is 4.02 ± 0.59 nmol/mg protein.

Q: And the “MDA (oxidative stress)” value (malondialdehyde: MDA; listed as pregabalin)?
A: The value was 4.02±0.59 nmol/mg protein.

Q: What about the TNF-α (TNF-α) of the same compound?
A: Its TNF-α is 14.53 ± 1.41 pg/mg protein.

Q: What about the TNF-α (TNF-α; listed as pregabalin) of the same compound?
A: The TNF-α was 14.53±1.41 pg/mg protein.

Q: Which results are given for `CC1=NN(c2ccccc2)C(=O)C1` [Edaravone, edaravone]?
A: von Frey test mechanical threshold ([1]; 0th week (before dosing)): 5.1 ± 0.1 g; von Frey test mechanical threshold [1, 8]: 5.1 ± 0.1 g; von Frey test mechanical threshold ([1]; 1st week (before dosing)): 4.1 ± 0.1 g; von Frey test mechanical threshold [1, 9]: 4.1 ± 0.1 g; von Frey test mechanical threshold ([1]; 2nd week): 4.6 ± 0.2 g; von Frey test mechanical threshold ([1]; 2nd week, listed as edaravone): 4.6 ± 0.2 g; von Frey test mechanical threshold ([1]; 3rd week): 4.8 ± 0.1 g; von Frey test mechanical threshold ([1]; 3rd week, listed as edaravone): 4.8 ± 0.1 g; von Frey test mechanical threshold ([1]; 4th week): 5.1 ± 0.2 g; von Frey test mechanical threshold ([1]; 4th week, listed as edaravone): 5.1 ± 0.2 g; Hind plantar blood flow ([2]; 0th week (before dosing)): 227.2 ± 12.5 PU; Hind plantar blood flow [2, 8]: 227.2±12.5 PU; Hind plantar blood flow ([2]; 1st week (before dosing)): 149.7 ± 11.5 PU; Hind plantar blood flow [2, 9]: 149.7±11.5 PU; Hind plantar blood flow ([2]; 2nd week, listed as edaravone): 161.4±9.1 PU; Hind plantar blood flow ([2]; 3rd week): 166.6 ± 7.5 PU; Hind plantar blood flow ([2]; 3rd week, listed as edaravone): 166.6±7.5 PU; Hind plantar blood flow ([2]; 4th week): 178.2 ± 9.9 PU; Hind plantar blood flow ([2]; 4th week, listed as edaravone): 178.2±9.9 PU; Sciatic nerve blood flow [3]: 1336.1 ± 46.7 PU; Sciatic nerve blood flow ([3]; listed as edaravone): 1336.1±46.7 PU; Sciatic nerve conduction velocity [4]: 63.6 ± 1.8 m/s; Sciatic nerve conduction velocity ([4]; listed as edaravone): 63.6±1.8 m/s; G-ratio [5]: 0.619 ± 0.005; Thickness of myelin [5]: 1.42 ± 0.02 μm; G-ratio ([5]; listed as edaravone): 0.619±0.005; Thickness of myelin ([5]; listed as edaravone): 1.42±0.02 μm; MDA (oxidative stress) (malondialdehyde: MDA): 2.98 ± 0.39 nmol/mg protein; MDA (oxidative stress) (malondialdehyde: MDA; listed as edaravone): 2.98±0.39 nmol/mg protein; TNF-α (TNF-α): 12.45 ± 2.06 pg/mg protein; TNF-α (TNF-α; listed as edaravone): 12.45±2.06 pg/mg protein
